The text below walks through data of PMC6412877 (Molecules, 2019).

Numbered stars: 1 amine (or outer) side, 2 acyl side, 3 side chain; on linkers, the order of the positions; unused ones are H or OH. Side chains are listed from the residue outwards. Ends that are not written are not given here. Peptide text beside a SMILES is read from it. * marks the point of attachment. C18 diacid = O=C(O)CCCCCCCCCCCCCCCCC(=O)*; γGlu = O=C(O)[C@H](CCC(=O)[*:2])N[*:1]; AEEA = NCCOCCOCC(=O)O

For assay [1], the target named is Human GLP-1R (Homo sapiens, UniProt P43220). The assay is described as follows: In vitro GLP-1R activation, human receptor. Format: cell-based. The note with it: mean ± SD.
Human GLP-1R, sequence (P43220 24-463): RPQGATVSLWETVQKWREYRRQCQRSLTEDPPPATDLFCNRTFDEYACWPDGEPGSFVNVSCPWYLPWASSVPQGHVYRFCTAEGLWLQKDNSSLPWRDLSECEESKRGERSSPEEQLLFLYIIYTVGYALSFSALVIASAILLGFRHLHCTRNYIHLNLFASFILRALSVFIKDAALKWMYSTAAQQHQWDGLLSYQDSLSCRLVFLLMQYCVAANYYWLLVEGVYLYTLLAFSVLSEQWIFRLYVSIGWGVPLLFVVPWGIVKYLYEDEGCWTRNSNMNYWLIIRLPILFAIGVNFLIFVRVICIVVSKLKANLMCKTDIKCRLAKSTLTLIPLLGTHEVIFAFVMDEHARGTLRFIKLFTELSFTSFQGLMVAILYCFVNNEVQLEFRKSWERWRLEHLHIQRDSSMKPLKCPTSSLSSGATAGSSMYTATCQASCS
The target in assay [2] is T1, Mouse GLP-1R (Mus musculus, UniProt O35659).
T1 sequence (O35659 22-463): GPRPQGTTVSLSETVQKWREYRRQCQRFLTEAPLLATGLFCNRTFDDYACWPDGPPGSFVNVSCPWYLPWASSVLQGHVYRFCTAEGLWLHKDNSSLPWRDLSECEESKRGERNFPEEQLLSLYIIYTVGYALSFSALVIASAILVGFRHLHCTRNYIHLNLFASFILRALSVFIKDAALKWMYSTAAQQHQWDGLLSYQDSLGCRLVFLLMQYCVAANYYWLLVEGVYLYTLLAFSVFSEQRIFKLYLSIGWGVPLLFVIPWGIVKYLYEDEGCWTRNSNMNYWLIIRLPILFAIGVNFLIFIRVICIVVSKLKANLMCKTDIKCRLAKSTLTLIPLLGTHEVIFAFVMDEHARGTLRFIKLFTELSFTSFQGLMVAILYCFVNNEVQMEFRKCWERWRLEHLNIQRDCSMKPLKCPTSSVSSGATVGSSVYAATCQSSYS
Description: In vitro GLP-1R activation, mouse receptor. Format: cell-based. The note with it: mean ± SD.

`CC(C)C[C@H](NC(=O)[C@H](CCCCNC(=O)COCCOCCNC(=O)COCCOCCNC(=O)CC[C@H](NC(=O)CCCCCCCCCCCCCCCCC(=O)O)C(=O)O)NC(=O)[C@H](C)NC(=O)[C@H](CO)NC(=O)[C@@H]1CCCN1C(=O)[C@H](CO)NC(=O)[C@H](CO)NC(=O)[C@H](Cc1ccc(O)cc1)NC(=O)[C@H](Cc1ccccc1)NC(=O)[C@@H](N)Cc1ccccc1)C(=O)N[C@@H](CCC(=O)O)C(=O)N[C@H](C(=O)NCC(=O)NCC(=O)N1CCC[C@H]1C(=O)N[C@@H](CO)C(=O)N[C@@H](CO)C(=O)NCC(=O)N[C@@H](C)C(=O)N1CCC[C@H]1C(=O)N1CCC[C@H]1C(=O)N1CCC[C@H]1C(=O)N[C@@H](CO)C(=O)O)[C@@H](C)O` [PEP17] (H-FFYSSPSAK([AEEA-AEEA-γGlu-C18 diacid])LETGGPSSGAPPPS-OH; N-terminus and C-terminus assumed): the Emax was found to be 79 ± 6.4% in assay [1] and 68 ± 5.9% in assay [2].

As for FFYSSPSAYLKTGGPSSGAPPPS [PEP15], the Emax was 78 ± 9.1% in assay [1] and 73 ± 6.4% in assay [2].

Consider `C[C@H](NC(=O)[C@H](CO)NC(=O)[C@@H]1CCCN1C(=O)[C@H](CO)NC(=O)[C@H](CO)NC(=O)[C@H](Cc1ccc(O)cc1)NC(=O)[C@H](Cc1ccccc1)NC(=O)[C@@H](N)Cc1ccccc1)C(=O)N[C@@H](Cc1ccc(O)cc1)C(=O)N[C@@H](CCCCN)C(=O)N[C@@H](CCC(=O)O)C(=O)N[C@H](C(=O)NCC(=O)NCC(=O)N1CCC[C@H]1C(=O)N[C@@H](CO)C(=O)N[C@@H](CO)C(=O)NCC(=O)N[C@@H](C)C(=O)N1CCC[C@H]1C(=O)N1CCC[C@H]1C(=O)N1CCC[C@H]1C(=O)N[C@@H](CO)C(N)=O)[C@@H](C)O` [PEP14], for which the Emax in assay [1] was determined as 105 ± 9.2%; in assay [2] it was 150 ± 10.9%.

With `CC(C)C[C@H](NC(=O)[C@H](Cc1ccc(O)cc1)NC(=O)[C@H](C)NC(=O)[C@H](CO)NC(=O)[C@@H]1CCCN1C(=O)[C@H](CO)NC(=O)[C@H](CO)NC(=O)[C@H](Cc1ccc(O)cc1)NC(=O)[C@H](Cc1ccccc1)NC(=O)[C@@H](N)Cc1ccccc1)C(=O)N[C@@H](CCCCNC(=O)COCCOCCNC(=O)COCCOCCNC(=O)CC[C@H](NC(=O)CCCCCCCCCCCCCCCCC(=O)O)C(=O)O)C(=O)N[C@H](C(=O)NCC(=O)NCC(=O)N1CCC[C@H]1C(=O)N[C@@H](CO)C(=O)N[C@@H](CO)C(=O)NCC(=O)N[C@@H](C)C(=O)N1CCC[C@H]1C(=O)N1CCC[C@H]1C(=O)N1CCC[C@H]1C(=O)N[C@@H](CO)C(=O)O)[C@@H](C)O` [PEP19] (H-FFYSSPSAYLK([AEEA-AEEA-γGlu-C18 diacid])TGGPSSGAPPPS-OH; N-terminus and C-terminus assumed), the figures for the Emax in assay [1] and in assay [2] were 89 ± 6.2% and 83 ± 3.2%, respectively.

For the compound `C[C@H](NC(=O)[C@H](CO)NC(=O)[C@@H]1CCCN1C(=O)[C@H](CO)NC(=O)[C@H](CO)NC(=O)[C@H](Cc1ccc(O)cc1)NC(=O)[C@H](Cc1ccccc1)NC(=O)[C@@H](N)Cc1ccccc1)C(=O)N[C@@H](Cc1ccc(O)cc1)C(=O)N[C@@H](CCCCNC(=O)COCCOCCNC(=O)COCCOCCNC(=O)CC[C@H](NC(=O)CCCCCCCCCCCCCCCCC(=O)O)C(=O)O)C(=O)N[C@@H](CCC(=O)O)C(=O)N[C@H](C(=O)NCC(=O)NCC(=O)N1CCC[C@H]1C(=O)N[C@@H](CO)C(=O)N[C@@H](CO)C(=O)NCC(=O)N[C@@H](C)C(=O)N1CCC[C@H]1C(=O)N1CCC[C@H]1C(=O)N1CCC[C@H]1C(=O)N[C@@H](CO)C(=O)O)[C@@H](C)O` [PEP18], the figures for the Emax in assay [1] and in assay [2] were 78 ± 6.4% and 78 ± 3.5%, respectively.

For FFYSSPSAYLEKGGPSSGAPPPS [PEP16], the figures for the Emax in assay [1] and in assay [2] were 92 ± 7.1% and 93 ± 9.3%, respectively.

Usually Emax stands for the size of the effect at its maximum, as opposed to the concentration needed.
